{
  "source": "paper PMC5339874",
  "about": "“Fluorene-9-bisphenol is anti-oestrogenic and may cause adverse pregnancy outcomes in mice” (Nature Communications, 2017)",
  "tested_on": "CD-1 mice",
  "experiment": "Global gene expression microarray of livers, ovaries and uteri",
  "assay_type": "in vivo",
  "procedure": "The uteri, ovaries and livers were collected for total RNA isolation. Total RNA was isolated using Trizol reagent (Invitrogen) and further purified by NucleoSpin RNA Clean-up (Macherey-Nagel, Germany). Fluorescence labelling of the RNA samples was performed with a Jingxin cRNA linear amplification and labelling kit (CapitalBio) according to the manufacturer's instructions. The total RNA from each pool of tissue samples (a mixture from three animals) was used for microarray analysis. Cy3 dCTP was used to label the samples. The labelled products were added to SurePrint G3 mouse gene expression 8 × 60 K microarrays (Agilent) and incubated overnight at 42 °C. Following hybridization, the gene arrays were washed and scanned using an Agilent G2565CA Microarray Scanner. Glyceraldehyde 3-phosphate dehydrogenase (GAPDH) was used as an endogenous control to monitor the quality of the target preparation. The data were processed with feature extraction software (GeneSpring GX v.11; Agilent). The raw signals were log-transformed and normalized with the percentile shift normalization method. All arrays met the minimum Agilent QA/QC standards. To verify the data from the gene array, 14 genes were chosen as candidates for Q-RT-PCR. Primers are listed in Supplementary Table 4. GAPDH was used as an endogenous control. Amplification was performed using SYBR Green PCR master mix (Applied Biosystems) according to the manufacturer's instructions. The relative expression was quantified using the 2^(−ΔΔCt) method. The Gene Ontology (GO) and KEGG pathway enrichment analyses were performed with DAVID (refs [40], [41]).",
  "key": {"[1]": {"settings": "50 mg/kg bw/d BHPF, 3 days, endogenous control"}, "[2]": {"settings": "liver, 50 mg kg^−1 bw d^−1, 3 days"}, "[3]": {"settings": "ovaries, 50 mg kg^−1 bw d^−1, 3 days"}, "[4]": {"settings": "uteri, 50 mg kg^−1 bw d^−1, 3 days"}},
  "data": [
    {"smiles": "Oc1ccc(C2(c3ccc(O)cc3)c3ccccc3-c3ccccc32)cc1", "note": "[BHPF, 9,9-bis(4-hydroxyphenyl)-fluorene]", "values": [
      {"measurement": "genes involved in biotransformation and oxidation-reduction processes", "setting": "50 mg kg^−1 bw d^−1, 3 days", "result": "up-regulated in the uterus but not in the liver"},
      {"measurement": "Actb gene expression change, liver, Microarray", "setting": "50 mg/kg bw/d BHPF, 3 days", "result": 1.09},
      {"measurement": "Actb gene expression change, ovary, Microarray", "setting": "50 mg/kg bw/d BHPF, 3 days", "result": 1.34},
      {"measurement": "Actb gene expression change, uterus, Microarray", "setting": "50 mg/kg bw/d BHPF, 3 days", "result": 1.07},
      {"measurement": "Cfd gene expression change, liver, Microarray", "setting": "50 mg/kg bw/d BHPF, 3 days", "result": -3.11},
      {"measurement": "Cfd gene expression change, ovary, Microarray", "setting": "50 mg/kg bw/d BHPF, 3 days", "result": 4.13},
      {"measurement": "Cfd gene expression change, uterus, Microarray", "setting": "50 mg/kg bw/d BHPF, 3 days", "result": -6.54},
      {"measurement": "Orm1 gene expression change, liver, Microarray", "setting": "50 mg/kg bw/d BHPF, 3 days", "result": -1.65},
      {"measurement": "Orm1 gene expression change, ovary, Microarray", "setting": "50 mg/kg bw/d BHPF, 3 days", "result": 1.18},
      {"measurement": "Orm1 gene expression change, uterus, Microarray", "setting": "50 mg/kg bw/d BHPF, 3 days", "result": 23.12},
      {"measurement": "Spp1 gene expression change, liver, Microarray", "setting": "50 mg/kg bw/d BHPF, 3 days", "result": -1.30},
      {"measurement": "Spp1 gene expression change, ovary, Microarray", "setting": "50 mg/kg bw/d BHPF, 3 days", "result": -1.67},
      {"measurement": "Spp1 gene expression change, uterus, Microarray", "setting": "50 mg/kg bw/d BHPF, 3 days", "result": 2.57},
      {"measurement": "Sprr1a gene expression change, liver, Microarray", "setting": "50 mg/kg bw/d BHPF, 3 days", "result": 2.17},
      {"measurement": "Sprr1a gene expression change, ovary, Microarray", "setting": "50 mg/kg bw/d BHPF, 3 days", "result": 1.17},
      {"measurement": "Sprr1a gene expression change, uterus, Microarray", "setting": "50 mg/kg bw/d BHPF, 3 days", "result": -3.44},
      {"measurement": "Sprr2a2 gene expression change, liver, Microarray", "setting": "50 mg/kg bw/d BHPF, 3 days", "result": 2.10},
      {"measurement": "Sprr2a2 gene expression change, ovary, Microarray", "setting": "50 mg/kg bw/d BHPF, 3 days", "result": -12.01},
      {"measurement": "Sprr2a2 gene expression change, uterus, Microarray", "setting": "50 mg/kg bw/d BHPF, 3 days", "result": -5.24},
      {"measurement": "Sprr2b gene expression change, liver, Microarray", "setting": "50 mg/kg bw/d BHPF, 3 days", "result": 2.75},
      {"measurement": "Sprr2b gene expression change, ovary, Microarray", "setting": "50 mg/kg bw/d BHPF, 3 days", "result": -2.07},
      {"measurement": "Sprr2b gene expression change, uterus, Microarray", "setting": "50 mg/kg bw/d BHPF, 3 days", "result": -13.20},
      {"measurement": "Sprr2f gene expression change, liver, Microarray", "setting": "50 mg/kg bw/d BHPF, 3 days", "result": 3.69},
      {"measurement": "Sprr2f gene expression change, ovary, Microarray", "setting": "50 mg/kg bw/d BHPF, 3 days", "result": -5.81},
      {"measurement": "Sprr2f gene expression change, uterus, Microarray", "setting": "50 mg/kg bw/d BHPF, 3 days", "result": -2.52},
      {"measurement": "Sprr2g gene expression change, liver, Microarray", "setting": "50 mg/kg bw/d BHPF, 3 days", "result": 2.09},
      {"measurement": "Sprr2g gene expression change, ovary, Microarray", "setting": "50 mg/kg bw/d BHPF, 3 days", "result": -5.71},
      {"measurement": "Sprr2g gene expression change, uterus, Microarray", "setting": "50 mg/kg bw/d BHPF, 3 days", "result": -2.13},
      {"measurement": "chil3 gene expression change, liver, Microarray", "setting": "50 mg/kg bw/d BHPF, 3 days", "result": -8.53},
      {"measurement": "chil3 gene expression change, ovary, Microarray", "setting": "50 mg/kg bw/d BHPF, 3 days", "result": -9.16},
      {"measurement": "chil3 gene expression change, uterus, Microarray", "setting": "50 mg/kg bw/d BHPF, 3 days", "result": -6.60},
      {"measurement": "cyp2e1 gene expression change, liver, Microarray", "setting": "50 mg/kg bw/d BHPF, 3 days", "result": -1.01},
      {"measurement": "cyp2e1 gene expression change, ovary, Microarray", "setting": "50 mg/kg bw/d BHPF, 3 days", "result": 1.25},
      {"measurement": "cyp2e1 gene expression change, uterus, Microarray", "setting": "50 mg/kg bw/d BHPF, 3 days", "result": 5.02},
      {"measurement": "ll1f6 gene expression change, liver, Microarray", "setting": "50 mg/kg bw/d BHPF, 3 days", "result": 1.95},
      {"measurement": "ll1f6 gene expression change, ovary, Microarray", "setting": "50 mg/kg bw/d BHPF, 3 days", "result": -1.11},
      {"measurement": "ll1f6 gene expression change, uterus, Microarray", "setting": "50 mg/kg bw/d BHPF, 3 days", "result": -10.96},
      {"measurement": "serp1d gene expression change, liver, Microarray", "setting": "50 mg/kg bw/d BHPF, 3 days", "result": 1.02},
      {"measurement": "serp1d gene expression change, ovary, Microarray", "setting": "50 mg/kg bw/d BHPF, 3 days", "result": 1.13},
      {"measurement": "serp1d gene expression change, uterus, Microarray", "setting": "50 mg/kg bw/d BHPF, 3 days", "result": 17.78},
      {"measurement": "GAPDH gene expression change, liver, Microarray", "setting": "[1]", "result": 1.02},
      {"measurement": "GAPDH gene expression change, ovary, Microarray", "setting": "[1]", "result": 1.03},
      {"measurement": "GAPDH gene expression change, uterus, Microarray", "setting": "[1]", "result": -1.02},
      {"measurement": "share of modified genes down-regulated", "setting": "[2]", "result": 22.3, "unit": "%"},
      {"measurement": "share of modified genes up-regulated", "setting": "[2]", "result": 77.7, "unit": "%"},
      {"measurement": "expression of sprr2a, sprr2b, sprr2f and sprr2g (response to E2 stimuli)", "setting": "[3]", "result": "down-regulated"},
      {"measurement": "share of modified genes down-regulated", "setting": "[3]", "result": 65.5, "unit": "%"},
      {"measurement": "share of modified genes up-regulated", "setting": "[3]", "result": 34.5, "unit": "%"},
      {"measurement": "expression pattern of oestrogen-responsive genes compared with that induced by E2", "setting": "[4]", "result": "opposite expression pattern"},
      {"measurement": "share of modified genes down-regulated", "setting": "[4]", "result": 43.4, "unit": "%"},
      {"measurement": "share of modified genes up-regulated", "setting": "[4]", "result": 56.6, "unit": "%"}
    ]}
  ]
}
